# Results as given in patent publication US10730849B2, “Benzo[b]thiophene compounds as STING agonists” (MERCK SHARP & DOHME CORP., priority 2016, dated 2020).
# Assays:
# full-length HAQ STING = full-length HAQ STING (Homo sapiens (Human), UniProt Q86WV6, G230A/H232R/R293Q/R71H); test: 3H-cGAMP filtration binding assay (HAQ STING); details: competition with tritiated cGAMP, HAQ STING membrane
# Excerpt: The ability of compounds to bind STING is quantified by the ability to compete with tritiated cGAMP ligand for human STING receptor membrane using a radioactive filter-binding assay. The binding assay employs STING receptor obtained from Hi-Five cell membranes overexpressing full-length HAQ STING prepared in-house and tritiated cGAMP ligand also purified in-house.
# (§1) The ability of compounds to bind STING is quantified by their ability to compete with tritiated cGAMP ligand for human STING receptor membrane using a radioactive filter-binding assay. The binding assay employs STING receptor obtained from Trichoplusia ni cell membranes (T. ni; Expression Systems, cat #94-002F, www.exressionsystems.com) overexpressing full-length HAQ STING and tritiated cGAMP ligand.
# The basic HAQ STING filtration assay protocol is as follows:
# Compound and membrane then preincubated for 60 min at RT to allow compound binding to equilibrate. Following equilibration, 8 nM of [^3H]c-GAMP ligand was prepared by diluting into assay buffer, and 50 uL of this working stock was then manually added to each well of the assay plate. […] The filter plates were then dried at 55° C. for 30 min using a pressurized oven before 30 uL of ULTIMA GOLD F scintillate was added to each well. Tritium levels for each reaction well were then measured using a PerkinElmer TopCount plate reader.
# (§2) After normalization to controls, the percent activity for each compound concentration was calculated by measuring the amount of remaining radioactivity. The plot of percent activity versus the log of compound concentration was fit with a 4-parameter dose response equation to calculate EC50 values.
# THP1 cells = test: IFN-β secretion in THP1 cell culture (5 h); assay type: cell-based, human; details: relative to 30 uM cGAMP
# Experimental: The ability of compounds to stimulate the secretion of interferon-beta from THP1 cells was measured using a human IFN-3 AlphaLISA kit (Perkin Elmer, Cat. No. AL265F). The basic protocol is as follows:
# The cell viability and count was ascertained using a Beckman Coulter V-Cell XR cell counter. The cells suspension was centrifuged at 200×g for 5 min at RT. Cells were resuspended to a density of 0.8×10^6/mL in 37° C. assay medium. Subsequent liquid transfers were performed using either a Matrix electronic multichannel pipette or an Agilent Bravo Automated Liquid Handling Platform.
# The assay was started by dispensing 40 μL of the previously prepared cell suspension into the wells of the plate containing compounds. After 5 h incubation at 37° C., 5% CO2 in a humidified atmosphere, the plate of cells and compounds was centrifuged at 200×g for 5 min at RT. […] To these supernatant-containing wells was added 10 μL of 5× Anti-Analyte Acceptor beads ([…] of AlphaLISA HiBlock Buffer) and incubated for 30 min at RT while shaking on an orbital plate shaker. To each well was added 10 μL of 5× Biotinylated Antibody Anti-analyte (5 nM in AlphaLISA HiBlock Buffer) and incubated on an orbital plate shaker for 60 min at RT or overnight at 4° C. To each well was added 25 μL of 2× SA-Donor beads ([…] in AlphaLISA HiBlock Buffer) and incubated for 30-45 min at RT in the dark while shaking on an orbital plate shaker. The plate was then read on a Perkin Elmer Envision (λex=680 nm, […]). The percent effect of the AlphaLISA signal at each compound concentration was calculated based on 30 uM cGAMP positive controls and 0.3% DMSO negative controls. The plot of percent effect versus the log of compound concentration was fit with a 4-parameter concentration response equation to calculate EC50 values.
# Compounds of the disclosure were evaluated for IFN-3 secretion in THP1 cell culture as described above.
# full-length WT STING = full-length WT STING (Homo sapiens (Human), UniProt Q86WV6, H232R); test: 3H-cGAMP filtration binding assay (WT STING); details: for inhibition at 20 µM: WT STING, compound at 20 uM; for EC50: competition with tritiated cGAMP, WT STING membrane
# Excerpt: as §1, with “www.expressionsystems.com)” for “www.exressionsystems.com)”, “WT” for “HAQ”
# The basic WT STING filtration assay protocol is as follows:
# The filter plates were then dried at 55° C. for 30 min using a pressurized VWR oven before 30 uL of ULTIMA GOLD F scintillate was added to each well. Tritium levels for each reaction well were then measured using a PerkinElmer TopCount plate reader.
# as §2
# Chain of full-length HAQ STING (Q86WV6 other isoform, or with tags, fused parts or gaps, stated change not applied): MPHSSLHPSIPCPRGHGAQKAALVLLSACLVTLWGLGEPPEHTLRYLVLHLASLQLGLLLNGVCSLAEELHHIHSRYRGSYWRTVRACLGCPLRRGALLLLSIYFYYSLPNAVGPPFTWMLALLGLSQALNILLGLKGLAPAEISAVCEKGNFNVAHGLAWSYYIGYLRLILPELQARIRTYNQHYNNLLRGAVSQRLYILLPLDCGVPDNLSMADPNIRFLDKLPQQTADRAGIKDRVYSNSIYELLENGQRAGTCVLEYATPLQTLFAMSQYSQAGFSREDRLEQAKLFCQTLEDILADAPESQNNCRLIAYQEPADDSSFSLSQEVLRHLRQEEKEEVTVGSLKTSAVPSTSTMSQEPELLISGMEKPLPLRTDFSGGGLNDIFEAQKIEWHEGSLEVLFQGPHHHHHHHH
# Chain of full-length WT STING (Q86WV6 other isoform, or with tags, fused parts or gaps H232R (already in the parent)): as the sequence (Q86WV6 other isoform, or with tags, fused parts or gaps, stated change not applied) above, with H71R, A230G, Q293R counted along it
SMILES,EC50 (full-length HAQ STING) [µM],inhibition at 20 µM (full-length WT STING) [%],EC50 (full-length WT STING) [µM],% Effect at 30 μM relative to 2’3’-cGAMP (THP1 cells) [%]
"COc1cc2sc(C(=O)[C@H]3C[C@H]3C(=O)O)cc2cc1Br (single isomer, unassigned) [Example 6, 2-(5-bromo-6-methoxybenzo[b]thiophene-2-carbonyl)cyclopropane-1-carboxylic acid]",0.703,,,130
"C#Cc1cc2cc(C(=O)CCC(=O)O)sc2cc1OC [Example 36, 4-(5-Ethynyl-6-methoxybenzo[b]thiophen-2-yl)-4-oxobutanoic acid]",14.4,9,,11
"COc1cc2cc(C(=O)CCC(=O)O)sc2cc1OC [Example 16, 4-(5,6-dimethoxybenzo[b]thiophen-2-yl)-4-oxobutanoic acid]",1.72,,2.48,129
"C=Cc1cc2sc(C(=O)CCC(=O)O)cc2cc1OC [Example 8, 4-(5-Methoxy-6-vinylbenzo[b]thiophen-2-yl)-4-oxobutanoic acid]",6.77,,15.5,260
"C=Cc1cc2cc(C(=O)CCC(=O)O)sc2cc1OC [Example 18, 4-(6-Methoxy-5-vinylbenzo[b]thiophen-2-yl)-4-oxobutanoic acid]",12.5,21,,273
"C=Cc1cc2cc(C(=O)[C@@H]3C[C@@H]3C(=O)O)sc2cc1OC [Example 39, (1S,2R)-2-(6-methoxy-5-vinylbenzo[b]thiophene-2-carbonyl)cyclopropane-1-carboxylic acid]",1.15,,,193
"COc1cc2sc(C(=O)[C@@H]3C[C@@H]3C(=O)O)cc2cc1Br (single isomer, unassigned) [Example 5, 2-(5-bromo-6-methoxybenzo[b]thiophene-2-carbonyl)cyclopropane-1-carboxylic acid]",1.14,,,77
"C[C@@H](CC(=O)c1cc2cc(Cl)c(Br)cc2s1)C(=O)O [Example 32, (S)-4-(6-bromo-5-chlorobenzo[b]thiophen-2-yl)-2-methyl-4-oxobutanoic acid]",3.63,,17,24
"CNc1cc2sc(C(=O)C[C@H](C)C(=O)O)cc2cc1OC [Example 37, (S)-4-(5-methoxy-6-(methylamino)benzo[b]thiophen-2-yl)-2-methyl-4-oxobutanoic acid]",5.61,,,42
"COc1cc2cc(C(=O)C[C@H](C)C(=O)O)sc2cc1C [Example 22, (S)-4-(5-methoxy-6-methylbenzo[b]thiophen-2-yl)-2-methyl-4-oxobutanoic acid]",8.81,,17.1,43
"COc1cc2sc(C(=O)C[C@H](C)C(=O)O)cc2cc1F [Example 30, (S)-4-(5-fluoro-6-methoxybenzo[b]thiophen-2-yl)-2-methyl-4-oxobutanoic acid]",5.05,,18.7,15
"COc1cc2cc(C(=O)CCC(=O)O)sc2cc1Cl [Example 23, 4-(6-Chloro-5-methoxybenzo[b]thiophen-2-yl)-4-oxobutanoic acid]",6.05,37,,191
"COc1cc2cc(C(=O)CC(C)C(=O)O)sc2cc1OC (centres unmarked) [Example 35, 4-(5,6-dimethoxybenzo[b]thiophen-2-yl)-2-methyl-4-oxobutanoic acid]",5.55,,7.67,57
"COCC(CC(=O)c1cc2cc(OC)c(OC)cc2s1)C(=O)O (centres unmarked) [Example 17, 4-(5,6-Dimethoxybenzo[b]thiophen-2-yl)-2-(methoxymethyl)-4-oxobutanoic acid]",5.87,,14.8,21
"COc1cc2sc(C(=O)CCC(=O)O)cc2c(F)c1OC [Example 14, 4-(4-fluoro-5,6-dimethoxybenzo[b]thiophen-2-yl)-4-oxobutanoic acid]",,,,394
"COc1cc2cc(C(=O)C[C@H](C)C(=O)O)sc2cc1SC [Example 38, (S)-4-(5-methoxy-6-(methylthio)benzo[b]thiophen-2-yl)-2-methyl-4-oxobutanoic acid]",1.93,,,154
"COc1cc2sc(C(=O)C3CC3C(=O)O)cc2cc1SC (centres unmarked) [Example 40, 2-(6-methoxy-5-(methylthio)benzo[b]thiophene-2-carbonyl)cyclopropane-1-carboxylic acid]",3.94,,,93
"COc1cc2cc(C(=O)CCC(=O)OC(C)(C)C)sc2cc1OC [Example 12, tert-butyl 4-(5,6-dimethoxybenzo[b]thiophen-2-yl)-4-oxobutanoate]",,,,16

# More lines, main results first:
EC50 (full-length HAQ STING) [µM],inhibition at 20 µM (full-length WT STING) [%],EC50 (full-length WT STING) [µM],SMILES,% Effect at 30 μM relative to 2’3’-cGAMP (THP1 cells) [%]
0.759,,,"COc1cc2cc(C(=O)C[C@H](C)C(=O)O[C@H]3CSSC[C@@H]3O)sc2cc1OC [Example 42, (S)-(4R,5R)-5-hydroxy-1,2-dithian-4-yl 4-(5,6-dimethoxybenzo[b]thiophen-2-yl)-2-methyl-4-oxobutanoate]",6
1.2,,4.11,"COc1cc2cc(C(=O)C[C@H](C)C(=O)O)sc2cc1O [Example 43, (S)-4-(6-hydroxy-5-methoxybenzo[b]thiophen-2-yl)-2-methyl-4-oxobutanoic acid]",56
14.7,,,"COc1cc2cc(C(=O)CCC(=O)O)sc2cc1CCF [Example 45, 4-[6-(2-fluoroethyl)-5-methoxy-1-benzothiophen-2-yl]-4-oxobutanoic acid]",104
13.7,7,,"COc1cc2cc(C(=O)CCC(=O)O)sc2cc1OC(F)F [Example 53, 4-(6-(difluoromethoxy)-5-methoxybenzo[b]thiophen-2-yl)-4-oxobutanoic acid]",182
2.72,,,"CCCC(CC(=O)c1cc2cc(OC)c(OC)cc2s1)C(=O)O (centres unmarked) [Example 49, 2-(2-(5,6-dimethoxybenzo[b]thiophen-2-yl)-2-oxoethyl)pentanoic acid]",111
0.531,,,"COc1cc2sc(C(=O)C[C@H](C)C(=O)O)cc2c2nc(C)oc12 [Example 54, (S)-4-(4-methoxy-2-methylthieno[2′,3′:5,6]benzo[1,2-d]oxazol-7-yl)-2-methyl-4-oxobutanoic acid]",66
15.7,,,"CCCc1cc2sc(C(=O)C[C@H](C)C(=O)O)cc2cc1OC [Example 44, (2S)-4-(5-methoxy-6-propyl-1-benzothiophen-2-yl)-2-methyl-4-oxobutanoic acid]",20
5.06,,,"CCCc1cc2cc(C(=O)C[C@H](C)C(=O)O)sc2cc1OC [Example 47, (2S)-4-(6-methoxy-5-propyl-1-benzothiophen-2-yl)-2-methyl-4-oxobutanoic acid]",90
